{
  "source": "patent US20030083381A1",
  "about": "“Hair growth or hair formation controlling agents” (priority 2000, published 2003)",
  "key": {"EP4 Receptor": {"molecular_target": "EP4 Receptor (Oryctolagus cuniculus, UniProt Q28691)", "sequence (Q28691 whole entry)": "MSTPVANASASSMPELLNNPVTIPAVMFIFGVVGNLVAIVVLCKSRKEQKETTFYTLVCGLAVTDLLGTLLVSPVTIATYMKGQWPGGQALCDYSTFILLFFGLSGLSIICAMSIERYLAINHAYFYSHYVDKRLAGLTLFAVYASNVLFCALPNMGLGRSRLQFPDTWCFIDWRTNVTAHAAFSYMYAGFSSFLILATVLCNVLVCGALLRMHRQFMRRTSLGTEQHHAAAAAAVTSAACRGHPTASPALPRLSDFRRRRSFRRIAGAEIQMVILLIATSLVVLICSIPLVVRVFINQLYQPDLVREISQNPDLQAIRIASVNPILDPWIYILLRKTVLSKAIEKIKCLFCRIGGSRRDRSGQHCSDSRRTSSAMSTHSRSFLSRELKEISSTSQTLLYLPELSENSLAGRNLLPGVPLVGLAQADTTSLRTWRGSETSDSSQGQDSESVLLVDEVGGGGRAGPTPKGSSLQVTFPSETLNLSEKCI", "experiment": "Magnus experiment using rabbit saphenous vein (relaxation of 40 mM KCl contraction)", "assay_type": "cell-based", "experimental": "Magnus Experiment Using Rabbit Saphenous Vein\nInvestigation of agonistic activity to EP4 was carried out by an improved method of the method of Lydford et al. (S. J. Lydford et al., Br. J. Pharmacol. 117, 13-20 (1996)) using rabbit saphenous veins. That is, each rabbit was deeply anesthetized by administering pentobarbital (50 mg/kg) to auricular vein, and then sacrificed by bleeding by cutting carotid artery. Saphenous vein was carefully but quickly removed and transferred into Krebs solution (NaCl 118.1 mM, KCl 5.31 mM, MgSO4 1.01 mM, CaCl2 3.52 mM, NaH2PO4 1.09 mM, NaHCO3 25.0 mM, glucose 9.99 mM, pH 7.4) which was preliminarily saturated with 95% O2+5% CO2 mixed gas. The connective tissue and the fatty tissue of each saphenous vein were isolated using a scissors for ophthalmology to prepare a ring preparation with a width of about 4 mm. This ring preparation was mounted on a hook for blood vessels, and then suspended in a Magnus tube filled with Krebs solution aerated with 95% O2+5% CO2 mixed gas and kept at 37° C. The isometric tension of each blood vessel was recorded on a recorder through an isometric transducer. To each blood vessel, a base tension of 1.0 g was applied and the blood vessel tissue was stabilized for about 30 minutes until the baseline became stabilized. After the baseline became stable, the blood vessel was contracted with 40 mM KCl, and the shrinkage and washing were repeated until the contraction became stable. After the contraction with KCl became stable, a thromboxane antagonist S-145 (1000 nM) was applied previously and then cumulative application experiments of Compounds 1 to 7 were carried out. More specifically, the reactivity to PGE2 which was a positive control drug was measured, and after washing, the action of each compound was studied. The effectiveness of each drug was expressed in terms of the concentration (EC50) at which the rate of relaxation of the test drug to the contraction by 40 mM KCl was 50%. EC50 value was calculated by plotting logarithm of the concentration of each drug along the abscissa and plotting the rate of relaxation with respect to the contraction by 40 mM KCl along the ordinate, and by determining the concentration at which the height of contraction was 50% based on the linear area of the concentration-reaction curve in each experiment. [drawing 39]"}, "epilated rabbit models [1]": {"tested_on": "epilated rabbit models", "experiment": "Hair-growth/generation test in young epilated rabbits (8 weeks old), subcutaneous, once a day from 2nd to 7th day", "assay_type": "in vivo, New Zealand White rabbits", "details": "young rabbits 8 weeks old", "experimental": "(§1) Hair-Growing or Hair-Generating Action\nThe test was carried out as follows. The hair on the back of each rabbit was removed and evacream was applied for a short time to the back so as to epilate the back. After wiping the epilated region with water, test compound was subcutaneously administered to the back at a dose of 0.25 ml/kg once a day from the second day to 7th day after epilation. The length of the hair was measured."}, "[2]": {"molecular_target": "T1, human PGE2 receptor subtype EP4 (Homo sapiens, UniProt P35408)", "T1 construct": "expressed in transfected cells; host or cells: COS-7 cells, transient expression; membrane specimens", "T1 sequence (P35408 whole entry)": "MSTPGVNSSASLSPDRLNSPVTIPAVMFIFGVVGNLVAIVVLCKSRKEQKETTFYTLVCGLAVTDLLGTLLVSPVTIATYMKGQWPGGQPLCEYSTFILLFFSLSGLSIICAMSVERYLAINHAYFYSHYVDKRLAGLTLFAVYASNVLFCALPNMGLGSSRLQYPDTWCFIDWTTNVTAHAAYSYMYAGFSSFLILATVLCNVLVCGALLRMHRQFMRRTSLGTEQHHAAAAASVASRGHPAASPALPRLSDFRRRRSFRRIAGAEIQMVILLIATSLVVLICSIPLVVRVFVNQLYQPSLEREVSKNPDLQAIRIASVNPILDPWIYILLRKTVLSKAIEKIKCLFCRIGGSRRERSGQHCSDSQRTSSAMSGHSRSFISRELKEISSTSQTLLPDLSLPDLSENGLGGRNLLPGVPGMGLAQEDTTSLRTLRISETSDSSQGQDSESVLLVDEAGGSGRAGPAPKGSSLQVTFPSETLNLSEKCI", "experiment": "Receptor binding experiment using PGE2 receptor subtype-expressing cells (3H-PGE2 displacement, membrane fractions)", "details": "human PGE2 receptor subtypes EP2, EP3, EP4", "experimental": "Receptor Binding Experiment Using PGE2 Receptor Subtype-expressing Cells\nThe compound of the Formula (I) described above was tested for its selective binding activity to EP4 receptor by using PGE2 receptor subtype-expressing cells.\nAccording to the reported method (Breyer,R. M. et al., J. Biol. Chem. 269,6163-6169(1994)), cloned human PGE2 receptor subtypes (EP3 and EP4) were transiently expressed by COS-7 cells. EP2 was stably expressed by CHO cells. These cells were prepared into membrane specimens. Each of the prepared membrane fractions (10 μg/tube) was incubated with a reaction solution containing ^3H—PGE2 at 30° C. for 1 hour. The reaction was terminated by iced buffer (10 mM MES(pH 6.0), 10 mM MgCl2, 1 mM EDTA), and the resultant was subjected to filtration by means of suction under reduced pressure to trap the bound ^3H-PGE2 on a glass filter (GF/C), followed by measurement of the radioactivity with a liquid scintillation counter.\nThe Kd value was determined from Scatchard plot according to the conventional method. Non-specific binding was determined in terms of the amount of bound radioactivity in the presence of an excess amount (5 μM) of non-labeled PGE2. […]\nThe dissociation constant Ki (nM) of Compound 1 was calculated according to the following equation: […]"}, "epilated rabbit models [3]": {"tested_on": "epilated rabbit models", "experiment": "Hair-growth/generation test in epilated rabbits, subcutaneous, once a day from 2nd to 20th day", "assay_type": "in vivo", "details": "for Length of New Hair (mm) / Rate of Hair-generated Area (%): mean ± standard error", "experimental": "as §1\nThe test was carried out as follows. The hair on the back of each rabbit was removed with an electric clipper and evacream was applied for a short time to the back so as to epilate the back. After wiping the epilated region with water, test compound was subcutaneously administered to the back at a dose of 0.25 ml/kg (dissolved in 0.9% sodium chloride solution) once a day from the second day to 20th day after epilation. The state of generation of hair was observed and the length of the hair was measured."}, "[4]": {"details": "relaxation of contraction by 40 mM KCl, thromboxane antagonist S-145 (1000 nM) present, read-out: EC50 (nM), agonistic activity to EP4 receptor in rabbit saphenous vein relaxation reaction"}},
  "note": "Like-named read-outs stand apart in the source and are kept apart here.",
  "data": [
    {"smiles": "CC(C)(C(O)C=CC1C(O)CC2Oc3c(OCC(=O)O)cccc3C21)C1CCCCC1", "note": "(stereo not shown) [Compound 5]", "values": [
      {"measurement": "EC50", "setting": "EP4 Receptor; [4]", "value": 26, "unit": "nM"}
    ]},
    {"smiles": "CC(C)(Cc1ccccc1)C(O)C=CC1C(O)CC2Oc3c(CCC(=O)O)cccc3C21", "note": "(stereo not shown) [Compound 4]", "values": [
      {"measurement": "EC50", "setting": "EP4 Receptor", "value": 7, "unit": "nM"}
    ]},
    {"smiles": "OC(C=CC1C(O)CC2Oc3c(CCc4nnn[nH]4)cccc3C21)CC1CCCCC1", "note": "(stereo not shown) [Compound 2]", "values": [
      {"measurement": "EC50", "setting": "EP4 Receptor; [4]", "value": 3, "unit": "nM"},
      {"measurement": "Length of New Hair (mm)", "setting": "epilated rabbit models [1]; 0.03 mg/kg s.c., 7th day, mean ± standard error, p < 0.05 vs. control", "value": "11.7 ± 0.5", "unit": "mm"},
      {"measurement": "length of the new hair (in words)", "setting": "epilated rabbit models [1]; s.c. once a day", "value": "increased"}
    ]},
    {"smiles": "O=C(O)C=Cc1cccc2c1OC1CC(O)C(C=CC(O)CC3CCCCC3)C21", "note": "(stereo not shown) [Compound 3]", "values": [
      {"measurement": "EC50", "setting": "EP4 Receptor", "value": 6, "unit": "nM"}
    ]},
    {"smiles": "O=C(O)CCc1cccc2c1O[C@H]1C[C@@H](O)[C@H](/C=C/[C@@H](O)CC3CCCCC3)[C@@H]21", "note": "[Compound 1]", "values": [
      {"measurement": "selectivity to EP4 receptor subtype (binding abilities to other receptor subtypes are low)", "setting": "[2]", "value": "high selectivity"},
      {"measurement": "Rate of Rabbits with 50% or More Hair-Generated Area", "setting": "epilated rabbit models [3]; 0.03 mg/kg s.c., 20th day", "value": "1/4"},
      {"measurement": "Length of New Hair (mm)", "setting": "epilated rabbit models [3]; 0.03 mg/kg s.c., 20th day", "value": "6.0 ± 0.6", "unit": "mm"},
      {"measurement": "Rate of Hair-generated Area (%)", "setting": "epilated rabbit models [3]; 0.03 mg/kg s.c., 20th day", "value": "15.8 ± 13.2", "unit": "%"},
      {"measurement": "Rate of Hair-generated Area (%)", "setting": "epilated rabbit models [3]; 0.1 mg/kg s.c., 20th day", "value": "48.8 ± 13.6", "unit": "%"},
      {"measurement": "Length of New Hair (mm)", "setting": "epilated rabbit models [3]; 0.1 mg/kg s.c., 20th day, p < 0.05 vs. control", "value": "7.3 ± 0.5", "unit": "mm"},
      {"measurement": "length of the new hair (in words)", "setting": "epilated rabbit models [3]; epilated rabbits, s.c. once a day", "value": "increased"},
      {"measurement": "EC50", "setting": "EP4 Receptor", "value": 6, "unit": "nM"}
    ]},
    {"smiles": "O=C(O)CSc1cccc2c1OC1CC(O)C(C=CC(O)CC3CCCCC3)C21", "note": "(stereo not shown) [Compound 6]", "values": [
      {"measurement": "EC50", "setting": "EP4 Receptor; [4]", "value": 33, "unit": "nM"}
    ]},
    {"smiles": "O=C(O)CCc1cccc2c1OC1CC(O)C(C=CC(O)C(F)(F)C3CCCCC3)C21", "note": "(stereo not shown) [Compound 7]", "values": [
      {"measurement": "EC50", "setting": "EP4 Receptor", "value": 2, "unit": "nM"}
    ]}
  ]
}
